Assay [1] deals with Bacillus strain BC1 (NRRL No. B-67744). Description: Antibiotic resistance, phenotypic MICs of medical antibiotics. It is filed as cell-based, Bacillus coagulans. The settings on record: for MIC: Bacillus.
Assay [2] concerns Bacillus strain (NRRL No. B-68053). Description: Antibiotic resistance, Minimum Inhibitory Concentrations (MICs) Against Medical Antibiotics. It is filed as cell-based, Bacillus subtilis. The source says:
The inventors have assessed resistance phenotypically. A bacterial strain is defined by EFSA as susceptible when its growth is inhibited at concentration of a specific antibiotic that is equal to or lower than the established cut-off value for that particular species. A bacterial strain is defined as resistant when it is able to grow at a concentration of a specific antibiotic that is higher than the established cut-off. We utilized both the EFSA and CLSI guidelines for determining susceptibility and resistance interpreted through their defined cut-off values.

In assay [3] the test system is Bacillus strain (NRRL No. B-68054). Described as above. Format: cell-based, Bacillus subtilis. The source says: The inventors have assessed resistance phenotypically. A bacterial strain is defined by EFSA as susceptible when its growth is inhibited at concentration of a specific antibiotic that is equal to or lower than the established cut-off value for that particular species. A bacterial strain is defined as resistant when it is able to grow at a concentration of a specific antibiotic that is higher than the established cut-off. The inventors utilized both the EFSA and CLSI guidelines for determining susceptibility and resistance interpreted through their defined cut-off values.

Setting [4] is: NRRLB67744, MIC of the antibiotic against the strain, triplicate, read-out: NRRL No. B-67744 ug/ml (triplicate).
[5] abbreviates: Bacillus, NRRLB68053; read-out: NRRL No. B-68053 ug/mL (triplicate), Minimum Inhibitory Concentration.
[6] abbreviates: Bacillus, NRRLB68054; read-out: NRRL No. B-68054 ug/mL (triplicate), Minimum Inhibitory Concentration.
The mark [7] stands for this setting: Bacillus, NRRLB68053, read-out: NRRL No. B-68053 ug/mL (triplicate), Minimum Inhibitory Concentration.
[8] abbreviates: Bacillus, NRRLB68054, read-out: NRRL No. B-68054 ug/mL (triplicate), Minimum Inhibitory Concentration.

≈ marks a conversion by molar mass, not a printed value. Where two headings read alike, the source gives them in different places.

This is an account of results in patent US20240139260A1, “MICROBIAL STRAIN COMPOSITIONS” (MICROBIAL DISCOVERY GROUP, LLC, priority 2022, published 2024).

As to `NC[C@H]1O[C@H](O[C@H]2[C@H](O)[C@@H](O[C@H]3O[C@H](CO)[C@@H](O)[C@H](N)[C@H]3O)[C@H](N)C[C@@H]2N)[C@H](O)[C@@H](O)[C@@H]1O` [Kanamycin], the values for the MIC in assay [1] (setting [4]), in assay [2] (setting [5]) and in assay [3] (setting [6]) were 0.016 µg/mL, 0.75 µg/mL (≈ 1.55 µM) and 0.75 µg/mL (≈ 1.55 µM), respectively.

With `O=C(N[C@H](CO)[C@H](O)c1ccc([N+](=O)[O-])cc1)C(Cl)Cl` [Chloramphenicol], the MIC in assay [1] (setting [4]) came to 0.016 µg/mL; in assay [2] (setting [5]), 3 µg/mL (≈ 9.28 µM); in assay [3] (setting [6]), 1.5 µg/mL (≈ 4.64 µM).

As to `CN(C)[C@@H]1C(O)=C(C(N)=O)C(=O)[C@@]2(O)C(O)=C3C(=O)c4c(O)cccc4[C@@](C)(O)[C@H]3C[C@@H]12` [Tetracycline], the values for the MIC in assay [1] (setting [4]), in assay [2] (setting [5]) and in assay [3] (setting [6]) were 1.25 µg/mL, 12 µg/mL (≈ 27 µM) and 6 µg/mL (≈ 13.5 µM), respectively.

Regarding `CCC[C@@H]1C[C@@H](C(=O)N[C@@H]([C@H]2O[C@H](SC)[C@H](O)[C@@H](O)[C@H]2O)[C@H](C)Cl)N(C)C1` [Clindamycin], the MIC in assay [1] (setting [4]) was 0.016 µg/mL; in assay [2] (setting [5]), 1 µg/mL (≈ 2.35 µM); in assay [3] (setting [6]) it was 0.5 µg/mL (≈ 1.18 µM).

On to `CO[C@H]1/C=C/O[C@@]2(C)Oc3c(C)c(O)c4c(O)c(c(/C=N/N5CCN(C)CC5)c(O)c4c3C2=O)NC(=O)/C(C)=C\C=C\[C@H](C)[C@H](O)[C@@H](C)[C@@H](O)[C@@H](C)[C@H](OC(C)=O)[C@@H]1C` [Rifampin], for which the MIC was determined as 0.25 µg/mL in assay [1] (setting [4]), 0.25 µg/mL (≈ 0.304 µM) in assay [2] (setting [5]) and 0.5 µg/mL (≈ 0.608 µM) in assay [3] (setting [6]).

For the compound `CN[C@H](CC(C)C)C(=O)N[C@H]1C(=O)N[C@@H](CC(N)=O)C(=O)N[C@H]2C(=O)N[C@H]3C(=O)N[C@H](C(=O)N[C@H](C(=O)O)c4cc(O)cc(O)c4-c4cc3ccc4O)[C@H](O)c3ccc(c(Cl)c3)Oc3cc2cc(c3O[C@@H]2O[C@H](CO)[C@@H](O)[C@H](O)[C@H]2O[C@H]2C[C@](C)(N)[C@H](O)[C@H](C)O2)Oc2ccc(cc2Cl)[C@H]1O` [Vancomycin], the MIC was 0.38 µg/mL in assay [1] (setting [4]), 0.5 µg/mL (≈ 0.345 µM) in assay [2] (setting [7]) and 0.75 µg/mL (≈ 0.518 µM) in assay [3] (setting [8]).

For Gentamicin, the “NRRL No. B-67744 ug/ml (triplicate)” value in assay [1] (MIC of the antibiotic against the strain, triplicate) is 0.023 µg/mL. The “NRRL No. B-68053 ug/mL (triplicate), Minimum Inhibitory Concentration” value in assay [2] (triplicate) came out at 0.094 µg/mL. Moreover, the “NRRL No. B-68054 ug/mL (triplicate), Minimum Inhibitory Concentration” value in assay [3] (triplicate) turned out to be 0.125 µg/mL.

As to `[H]/N=C(/N)N[C@H]1[C@H](O)[C@@H](O)[C@H](O[C@@H]2O[C@@H](C)[C@](O)(C=O)[C@H]2O[C@@H]2O[C@@H](CO)[C@H](O)[C@@H](O)[C@@H]2NC)[C@@H](N/C(N)=N\[H])[C@@H]1O` [Streptomycin], the MIC in assay [1] (setting [4]) worked out at 1.5 µg/mL; in assay [2] (setting [5]) it was 8 µg/mL (≈ 13.8 µM); in assay [3] (setting [6]) it was 4 µg/mL (≈ 6.88 µM).

Consider `CN(C)c1cc(NC(=O)CNC(C)(C)C)c(O)c2c1C[C@H]1C[C@H]3[C@H](N(C)C)C(O)=C(C(N)=O)C(=O)[C@@]3(O)C(O)=C1C2=O` [Tigecycline], for which the MIC in assay [1] (NRRLB67744, read-out: NRRL No. B-67744 ug/ml (triplicate)) is 0.064 µg/mL (≈ 0.109 µM); in assay [2] (setting [7]) it was 0.094 µg/mL (≈ 0.161 µM); in assay [3] (setting [8]), 0.064 µg/mL (≈ 0.109 µM).

In the case of `CC[C@H]1OC(=O)[C@H](C)[C@@H](O[C@H]2C[C@@](C)(OC)[C@@H](O)[C@H](C)O2)[C@H](C)[C@@H](O[C@@H]2O[C@H](C)C[C@H](N(C)C)[C@H]2O)[C@](C)(O)C[C@@H](C)C(=O)[C@H](C)[C@@H](O)[C@]1(C)O` [Erythromycin], the MIC in assay [1] (setting [4]) was 0.125 µg/mL; in assay [2] (setting [5]), 0.064 µg/mL (≈ 0.0872 µM); in assay [3] (setting [6]), 0.047 µg/mL (≈ 0.064 µM).

Regarding `O=C(O)c1cn(C2CC2)c2cc(N3CCNCC3)c(F)cc2c1=O` [Ciprofloxacin], the MIC in assay [2] (setting [5]) came out at 0.94 µg/mL (≈ 2.84 µM).

Take `CC(=O)NC[C@H]1CN(c2ccc(N3CCOCC3)c(F)c2)C(=O)O1` [Linezolid]: the MIC in assay [1] (setting [4]) was found to be 0.75 µg/mL; in assay [2] (setting [5]), 1 µg/mL (≈ 2.96 µM); in assay [3] (setting [6]) it was 0.25 µg/mL (≈ 0.741 µM).
